± gives the expanded uncertainty stated by the source.
Conditions: Liquid, Vibrating tube method

CCCCCCCCCC [decane]
Conditions | mass density [kg/m3]
333.15 K, 34442 kPa | 727.7 ± 2.1
333.15 K, 34445 kPa | 727.8 ± 2.1
333.16 K, 815 kPa | 699.9 ± 2
333.16 K, 842 kPa | 699.9 ± 2
333.16 K, 881 kPa | 700 ± 2
333.16 K, 941 kPa | 700 ± 2
333.16 K, 2806 kPa | 701.9 ± 2
333.16 K, 2881 kPa | 702 ± 2
333.16 K, 2921 kPa | 701.9 ± 2
333.16 K, 3005 kPa | 702 ± 2
333.16 K, 4814 kPa | 703.9 ± 2
333.16 K, 4927 kPa | 703.9 ± 2
333.16 K, 5007 kPa | 704 ± 2
333.16 K, 5592 kPa | 704.7 ± 2
333.16 K, 5608 kPa | 704.7 ± 2
333.16 K, 5623 kPa | 704.7 ± 2
333.16 K, 5704 kPa | 704.7 ± 2
333.16 K, 5748 kPa | 704.8 ± 2
333.16 K, 5756 kPa | 704.7 ± 2
333.16 K, 5775 kPa | 704.7 ± 2
333.16 K, 5795 kPa | 704.8 ± 2
333.16 K, 5811 kPa | 704.9 ± 2
333.16 K, 5830 kPa | 704.8 ± 2
333.16 K, 5852 kPa | 704.8 ± 2
333.16 K, 5874 kPa | 704.9 ± 2
333.16 K, 5896 kPa | 704.9 ± 2
333.16 K, 5917 kPa | 705 ± 2
333.16 K, 5934 kPa | 704.9 ± 2
333.16 K, 5956 kPa | 704.9 ± 2
333.16 K, 5973 kPa | 705 ± 2
333.16 K, 6001 kPa | 704.9 ± 2
333.16 K, 6018 kPa | 705 ± 2
333.16 K, 6045 kPa | 704.9 ± 2
333.16 K, 6069 kPa | 705.1 ± 2
333.16 K, 6092 kPa | 705 ± 2
333.16 K, 6116 kPa | 705.1 ± 2
333.16 K, 6643 kPa | 705.5 ± 2
333.16 K, 6667 kPa | 705.5 ± 2
333.16 K, 6688 kPa | 705.6 ± 2
333.16 K, 6713 kPa | 705.6 ± 2
333.16 K, 6738 kPa | 705.6 ± 2
333.16 K, 6763 kPa | 705.7 ± 2
333.16 K, 6796 kPa | 705.7 ± 2
333.16 K, 6822 kPa | 705.8 ± 2
333.16 K, 6844 kPa | 705.8 ± 2
333.16 K, 7378 kPa | 706.3 ± 2
333.16 K, 7414 kPa | 706.2 ± 2
333.16 K, 7450 kPa | 706.4 ± 2
333.16 K, 7482 kPa | 706.3 ± 2
333.16 K, 7512 kPa | 706.3 ± 2
333.16 K, 7550 kPa | 706.4 ± 2
333.16 K, 7575 kPa | 706.4 ± 2
333.16 K, 7610 kPa | 706.5 ± 2
333.16 K, 7628 kPa | 706.3 ± 2
333.16 K, 7651 kPa | 706.4 ± 2
333.16 K, 7667 kPa | 706.6 ± 2
333.16 K, 7693 kPa | 706.5 ± 2
333.16 K, 7720 kPa | 706.6 ± 2
333.16 K, 7744 kPa | 706.6 ± 2
333.16 K, 7771 kPa | 706.7 ± 2
333.16 K, 7795 kPa | 706.6 ± 2
333.16 K, 7812 kPa | 706.5 ± 2
333.16 K, 7830 kPa | 706.6 ± 2
333.16 K, 7853 kPa | 706.7 ± 2
333.16 K, 7871 kPa | 706.8 ± 2
333.16 K, 7897 kPa | 706.8 ± 2
333.16 K, 7918 kPa | 706.7 ± 2
333.16 K, 7939 kPa | 706.8 ± 2
333.16 K, 7960 kPa | 706.7 ± 2
333.16 K, 7987 kPa | 706.8 ± 2
333.16 K, 8006 kPa | 706.9 ± 2
333.16 K, 8033 kPa | 706.9 ± 2
333.16 K, 8049 kPa | 706.9 ± 2
333.16 K, 8068 kPa | 707 ± 2
333.16 K, 8410 kPa | 707.1 ± 2
333.16 K, 8437 kPa | 707.2 ± 2
333.16 K, 8464 kPa | 707.2 ± 2
333.16 K, 8484 kPa | 707.2 ± 2
333.16 K, 8592 kPa | 707.4 ± 2
333.16 K, 8666 kPa | 707.4 ± 2
333.16 K, 8688 kPa | 707.6 ± 2
333.16 K, 8718 kPa | 707.4 ± 2
333.16 K, 8769 kPa | 707.5 ± 2
333.16 K, 8949 kPa | 707.7 ± 2
333.16 K, 8971 kPa | 707.7 ± 2
333.16 K, 9005 kPa | 707.7 ± 2
333.16 K, 9029 kPa | 707.7 ± 2
333.16 K, 9051 kPa | 707.7 ± 2
333.16 K, 9073 kPa | 707.8 ± 2
333.16 K, 9099 kPa | 707.9 ± 2
333.16 K, 9121 kPa | 707.7 ± 2
333.16 K, 9143 kPa | 707.9 ± 2
333.16 K, 9169 kPa | 707.8 ± 2
333.16 K, 9191 kPa | 707.9 ± 2
333.16 K, 9214 kPa | 707.9 ± 2
333.16 K, 9234 kPa | 708 ± 2
333.16 K, 9254 kPa | 707.9 ± 2
333.16 K, 9280 kPa | 707.9 ± 2
333.16 K, 9303 kPa | 708.1 ± 2
333.16 K, 9330 kPa | 708 ± 2
333.16 K, 9521 kPa | 708.1 ± 2
333.16 K, 9549 kPa | 708.2 ± 2
333.16 K, 9737 kPa | 708.4 ± 2
333.16 K, 9763 kPa | 708.4 ± 2
333.16 K, 9789 kPa | 708.4 ± 2
333.16 K, 9818 kPa | 708.4 ± 2
333.16 K, 12216 kPa | 710.6 ± 2
333.16 K, 12245 kPa | 710.6 ± 2
333.16 K, 12280 kPa | 710.7 ± 2
333.16 K, 12305 kPa | 710.7 ± 2
333.16 K, 12351 kPa | 710.7 ± 2
333.16 K, 12386 kPa | 710.7 ± 2
333.16 K, 12427 kPa | 710.8 ± 2
333.16 K, 12458 kPa | 710.8 ± 2
333.16 K, 12492 kPa | 710.8 ± 2
333.16 K, 12528 kPa | 710.8 ± 2
333.16 K, 12561 kPa | 710.9 ± 2
333.16 K, 12601 kPa | 711 ± 2
333.16 K, 12638 kPa | 710.9 ± 2
333.16 K, 12670 kPa | 711 ± 2
333.16 K, 12704 kPa | 711 ± 2
333.16 K, 12735 kPa | 711 ± 2
333.16 K, 12766 kPa | 711 ± 2
333.16 K, 12792 kPa | 711.1 ± 2
333.16 K, 12824 kPa | 711.1 ± 2
333.16 K, 13106 kPa | 711.4 ± 2
333.16 K, 13133 kPa | 711.4 ± 2
333.16 K, 13377 kPa | 711.5 ± 2
333.16 K, 13399 kPa | 711.4 ± 2
333.16 K, 13418 kPa | 711.7 ± 2
333.16 K, 13441 kPa | 711.6 ± 2
333.16 K, 13459 kPa | 711.6 ± 2
333.16 K, 13476 kPa | 711.7 ± 2
333.16 K, 13493 kPa | 711.7 ± 2
333.16 K, 13510 kPa | 711.7 ± 2
333.16 K, 13525 kPa | 711.7 ± 2
333.16 K, 13537 kPa | 711.6 ± 2
